The results in this text go back to ChEMBL document CHEMBL4145569, “Hypoxia-Protective Azaphilone Adducts from Peyronellaea glomerata” (J Nat Prod, 2018).

pEC50: −log10 of the molar value.

A short description of experiment [1]: Antioxidant activity assessed as ABTS radical scavenging activity incubated for 6 mins under dark condition. The format is functional.
A short description of experiment [2]: Antioxidant activity assessed as DPPH radical scavenging activity incubated for 30 mins under dark condition. Type of experiment: functional. (In general: Loss of DPPH colour is used to gauge radical scavenging.)
Experiment [3] relates to HUVEC. Description: Protection against hypoxia/reoxygenation-induced cell injury in HUVEC assessed as cell viability at 5 uM treated 1 hr prior to hypoxia induction for 12 hrs followed by compound redosing and subsequent reoxygenation for 3 hrs by MTT assay (reference value: 35%). The format is functional. The note with it: Homo sapiens, read-out: Activity.
Experiment [4] deals with HUVEC. Briefly: Protection against hypoxia/reoxygenation-induced cell injury in HUVEC assessed as late apoptotic cells at 1 uM treated 1 hr prior to hypoxia induction for 12 hrs followed by compound redosing and subsequent reoxygenation for 3 hrs by annexin-V-FITC/propidium iodide staining based flow cytometric analysis (reference value: 22.8%). The format is functional, Homo sapiens. In general terms: A flow cytometer gives signals particle by particle.

In experiment [5] the test system is HUVEC. Description: Protection against hypoxia/reoxygenation-induced cell injury in HUVEC assessed as late apoptotic cells at 5 uM treated 1 hr prior to hypoxia induction for 12 hrs followed by compound redosing and subsequent reoxygenation for 3 hrs by annexin-V-FITC/propidium iodide staining based flow cytometric analysis (reference value: 22.8%). Type of experiment: functional, Homo sapiens.

The term pEC50 denotes the negative decadic logarithm of the EC50, by convention in mol/L. As for `CC[C@@H](C)[C@@]12OC(=O)[C@@]3(O)C[C@@H](O1)c1c(cc(O)c(C)c1O)[C@@]23C`, the negative-log EC50 (pEC50) in experiment [1] and in experiment [2] was 3.90 to 4.08 in each case. Further, the viability at 5 µM in the experiment with HUVEC [3] was 70%. Moreover, the Activity in the experiment with HUVEC [4] was found to be 9.8%; in the experiment with HUVEC [5], 9.4%.
`CC[C@@H](C)[C@]12OC(=O)[C@]3(O)C[C@H](O1)c1c(cc(O)c(C)c1O)[C@]23C`: the pEC50 in experiment [1] and in experiment [2] was 3.90 to 4.08 each time.
